Experimental data published in patent US20040082477A1, “Pyrrolecarboxamides for the use as fungicdes” (priority 2001, published 2004).

melting point: 166 to 167 °C
Compound: Cn1cc(C(=O)Nc2ccccc2-c2ccc(Br)cc2)c(C(F)F)c1 [Compound 1.2, 1-methyl-4-difluoromethyl-1H-pyrrole-3-carboxylic acid (4′-bromobiphenyl-2-yl) amide]
